“Also recorded” adds a separate entry of the source. Where two headings read alike, the source gives them in different places. Where only a bound is given, the exact number is not on record here.

The subject of data set [1] is DENV-R2A (Rluc-expressing DENV, serotype 2 strain 16681). The data set is described as follows: microbe, parasite or virus in culture. The conditions noted are these: for decrease of viral replication (DENV-R2A): 50 μM, Huh7.5, 2 days postinfection, vs DMSO; for activity at 50 µM / EC50: Dengue virus, Huh7.5, 48 h; for EC50: read-out: EC50 DENV-R2A. Type of data set: cell-based, Dengue virus.

Data set [2] deals with ZIKV-R2A (strain FSS13025). In words: microbe, parasite or virus in culture. The conditions noted are these: Zika virus, Huh7.5, 48 h; for EC50: read-out: EC50 ZIKV-R2A FSS13025; for activity at 50 µM: read-out: ZIKV-R2A replication (fold DMSO) Mean. Type of data set: cell-based.
In data set [3] the test system is DENV2 16681s. The data set is described as follows: Infectious viral titer by plaque assay, wild-type DENV2 in Huh7.5 cells. Type of data set: cell-based, Dengue virus. The conditions noted are these: 50 μM, MOI 0.1, Huh7.5, 2 days postinfection.
A further data set concerns ZIKV H/PF/2013. In words: Infectious viral titer by plaque assay, ZIKV in Huh7.5 cells. Type of data set: cell-based, Zika virus. The conditions noted are these: 50 μM, MOI 0.1, Huh7.5, 2 days postinfection.
The test system of a further data set is WNV NY99. In words: Extracellular infectious titer by plaque assay, WNV in Huh7.5 cells. The format is cell-based, West Nile virus. The conditions noted are these: 50 μM.
The next data set relates to HCV, strain JFH-1. Type of data set: cell-based, hepatitis C virus. As to conditions: 50 μM, JFH-1-Luc, Huh7.5, 2 days.
The subject of a further data set is SARS-CoV-2. The format is cell-based.
For the next data set, the system named is MHV-A59. The data set is described as follows: Infectious viral titer by plaque assay, MHV-A59 in DBT cells. Type of data set: cell-based, mouse hepatitis virus. The conditions noted are these: 50 μM, MOI 0.0001, 1 day postinfection.
The subject of the next data set is DENV-R2A. The format is cell-based, Dengue virus. As to conditions: 50 μM.
Data set [4] concerns DENV2 16681s. The data set is described as follows: Intracellular DENV vRNA (RT-qPCR) and NS4B (western blot) in infected Huh7.5 cells. The format is cell-based, Dengue virus. The conditions noted are these: 50 μM, MOI 0.1, Huh7.5, 2 days postinfection.
Data set [5] concerns the target ZIKV NS3/NS4B interaction (Zika virus, UniProt A0A024B7W1). In words: Coimmunoprecipitation assay of NS3/NS4B interaction. The conditions noted are these: unpublished data.
The subject of data set [6] is Huh7.5 cells. In words: Cell viability, CellTiter-Glo luminescent assay. As to conditions: for cell viability / cytotoxicity at the used concentration: Huh7.5; for Cell viability (fold DMSO) Mean: deconvolution screen, singletons, 50 µM, uninfected Huh7.5.
Data set [7] relates to DENV vesicle packets (VP). In words: Replication-independent vesicle packet induction (pIRO-D) in Huh7/Lunet-T7 cells, TEM, western blot, immunofluorescence. The conditions noted are these: 50 μM for 12 h, pIRO-D-transfected Huh7/Lunet-T7.
Data set [8] relates to DENV-R2A (Rluc-expressing DENV, serotype 2 strain 16681). As to conditions: same experimental set-up; cited from earlier work.
Data set [9] concerns Huh7.5 cells. Also on record: method as in PMID 34152811. The conditions noted are these: same experimental set-up; cited from earlier work.
The test system of data set [10] is ZIKV-R2A (strain FSS13025). The conditions noted are these: same experimental set-up; cited from earlier work.
The next data set relates to murine cancer model. The conditions noted are these: cited from earlier work.
The test system of a further data set is sg-DENV-R2H. The data set is described as follows: Resistance selection with selectable subgenomic replicon sg-DENV-R2H in Huh7.5 cells. The format is cell-based, Dengue virus. The conditions noted are these: 100 µM, hygromycin 500 µg/mL, 31 days of dual selection.
The nature of data set [11]: Cell viability, CellTiter-Glo luminescent assay. The conditions noted are these: human, CC50 Huh 7.5, uninfected Huh7.5, 2 days, CellTiter-Glo.
Setting [12] is: read-out: DENV-R2A replication (fold DMSO) Mean, deconvolution screen, singletons, 50 µM, Huh7.5, 2 days postinfection.
Setting [13] is: added up to 8 h after infection, read 2 days postinfection.

ZIKV NS3/NS4B interaction, sequence (A0A024B7W1 1503-2119): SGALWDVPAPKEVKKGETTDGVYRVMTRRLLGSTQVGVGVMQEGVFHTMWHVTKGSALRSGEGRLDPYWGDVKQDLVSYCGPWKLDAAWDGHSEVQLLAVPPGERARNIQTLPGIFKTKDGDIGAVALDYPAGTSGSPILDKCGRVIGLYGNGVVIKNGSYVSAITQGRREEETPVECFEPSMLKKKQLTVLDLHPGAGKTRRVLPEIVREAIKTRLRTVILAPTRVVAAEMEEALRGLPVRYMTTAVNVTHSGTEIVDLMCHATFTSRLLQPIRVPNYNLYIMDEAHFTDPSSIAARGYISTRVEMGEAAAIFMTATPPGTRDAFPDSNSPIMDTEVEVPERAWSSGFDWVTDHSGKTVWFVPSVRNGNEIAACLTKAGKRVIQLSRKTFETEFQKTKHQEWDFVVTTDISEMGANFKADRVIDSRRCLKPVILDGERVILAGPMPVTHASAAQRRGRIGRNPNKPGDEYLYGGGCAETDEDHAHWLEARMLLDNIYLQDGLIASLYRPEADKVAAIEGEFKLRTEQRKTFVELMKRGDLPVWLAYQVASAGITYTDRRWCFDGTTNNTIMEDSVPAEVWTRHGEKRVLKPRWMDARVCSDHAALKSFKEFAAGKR
ZIKV NS3/NS4B interaction, sequence (A0A024B7W1 2270-2520): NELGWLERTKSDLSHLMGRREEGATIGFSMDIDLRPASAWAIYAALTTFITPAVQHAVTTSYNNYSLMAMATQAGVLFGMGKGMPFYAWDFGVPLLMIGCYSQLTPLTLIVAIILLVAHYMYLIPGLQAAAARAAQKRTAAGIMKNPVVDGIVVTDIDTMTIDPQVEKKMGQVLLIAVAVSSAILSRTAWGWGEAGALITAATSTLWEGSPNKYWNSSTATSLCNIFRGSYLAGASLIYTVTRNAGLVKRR

Consider `O=C(Nc1ccccc1)c1cccnc1` [NPP3C, N-phenylpyridine-3-carboxamide], for which the “decrease of viral replication (DENV-R2A)” value in data set [1] was 55 fold. The activity at 50 µM in data set [1] (read-out: DENV-R2A replication (Fold DMSO), Table S3, NPP3C analogues, 50 µM, Huh7.5, 2 days postinfection) was determined as 1.31%; in data set [1] (setting [12]), 2.38%; in data set [1] (read-out: DENV-R2A replication (fold DMSO), Table 1, NPP3C analogues, 50 μM, Huh7.5, 2 days postinfection) it was 1%; in [2], 27%. Further, the EC50 came out at 7.1 µM in data set [1] and 15.3 µM in [2]. In the data set on DENV2 16681s [3], the “abundance of released virions (plaque assay)” value was “reduced”. Besides, the “reduction in ZIKV viral titers” value with ZIKV H/PF/2013 was around 15 fold. In addition, the “decrease of WNV extracellular infectious titers” value in the data set with WNV NY99 (MOI 0.1, Huh7.5, 2 days postinfection) came to 22 fold. The “impact on HCV replication” value with HCV, strain JFH-1 is “did inhibit”. Besides, in the data set with SARS-CoV-2, the “anti-SARS-CoV-2 activity (reduction)” value was “less than 10 fold”. Besides, the “impact on MHV replication” value with MHV-A59 was “did not impede”. The “inhibitory activity when added after infection” value is “retain their full inhibitory activity” in the data set with DENV-R2A (added 4 h after infection) and “retained a strong inhibitory activity” with DENV-R2A (setting [13]). In addition, the “intracellular levels of DENV vRNA and NS4B” value in the data set with DENV2 16681s [4] was “decrease”. Also, the “formation and stability of ZIKV NS3/NS4B interaction” value in data set [5] was “do not inhibit”. The “cell viability / cytotoxicity at the used concentration” value in the data set with Huh7.5 cells [6] (50 μM) is listed as “unaffected”. For the same compound, the “levels of viral protein NS3 (western blot)” value in data set [7] is on record as “remained unchanged”.

Consider `COc1cc2c(cc1O)CN(C)C[C@H]2c1ccc(O)cc1` [cherylline], for which the EC50 in [8] is 8.8 µM; in data set [10], 20.3 µM. For the same compound, the CC50 in the data set with Huh7.5 cells [9] is above 250 µM.

For `NC(=O)c1ccccc1NC(=O)c1ccc(-c2ccccc2)cc1` [N-(2-[aminocarbonyl]phenyl) (1,1′-biphenyl)-4-carboxamide], in the data set with murine cancer model, the “efficacy in in vivo murine cancer model” value was “effective” and the “toxicity in in vivo murine cancer model” value is reported as “without observable toxicity”.

For the compound `CC(=O)c1ccc2cn[nH]c2c1` [Compound 6A1HI, 6-acetyl-1H-indazole], the “decrease of viral replication (DENV-R2A)” value in [1] is 714 fold. The activity at 50 µM in [1] (read-out: DENV-R2A replication (Fold DMSO), 6A1HI analogues, test concentration = 50 µM, Huh7.5 cells) was 3.77%; in data set [1] (setting [12]), 0.244%; in data set [1] (read-out: DENV-R2A replication (fold DMSO), Table 2, 6A1HI analogues, 50 μM, Huh7.5, 2 days postinfection), 4%; in [2], 29%. The figures for the EC50 in data set [1] and in [2] were 6.5 µM and 69.3 µM, respectively. In addition, the “decrease of infectious DENV particle production / DENV titers” value is “more than 100 fold” in the data set with DENV2 16681s [3] and “up to 1,000 fold” in the data set on DENV2 16681s [3] (listed as 6A1H1). Also, in the data set on DENV2 16681s [3], the “decrease of released infectious virions (plaque assay)” value is given as around 3 Log10-fold. In addition, the “reduction in ZIKV viral titers” value in the data set on ZIKV H/PF/2013 came to 2 fold. The “impact on WNV replication” value in the data set with WNV NY99 (Huh7.5) is “Only moderate impacts (if any)”. The “impact on HCV replication” value in the data set on HCV, strain JFH-1 is on record as “Only moderate impacts (if any)”. In the data set with SARS-CoV-2, the “anti-SARS-CoV-2 activity (reduction)” value was “less than 10 fold”. In the data set with SARS-CoV-2 (50 μM, Huh7.5), the “impact on SARS-CoV-2 (betacoronavirus) replication” value is “Only moderate impacts (if any)”. The “impact on MHV replication” value in the data set with MHV-A59 was “Only moderate impacts (if any); also recorded: did not impede”. In addition, the “inhibitory activity when added after infection” value in the data set with DENV-R2A (added 4 h after infection) is recorded as “retain their full inhibitory activity”; in the data set on DENV-R2A (setting [13]) it was “retained a strong inhibitory activity”. In the data set with sg-DENV-R2H, the “selection of resistant cells (genetic barrier to resistance)” value is on record as “unable to select resistant cells”. In addition, the “intracellular levels of DENV vRNA and NS4B” value in the data set on DENV2 16681s [4] is on record as “decrease”. Also, the “formation and stability of ZIKV NS3/NS4B interaction” value in data set [5] is reported as “do not inhibit”. The same compound registered a CC50 at 48 h in [11] above 150 µM. In addition, the “cell viability / cytotoxicity at the used concentration” value is given as “unaffected” with Huh7.5 cells [6] (50 μM) and “without any cytotoxicity” in the data set on Huh7.5 cells [6] (50 μM, listed as 6A1H1). Further, the “Cell viability (Fold DMSO)” value in the data set with Huh7.5 cells [6] (6A1HI analogues, test concentration = 50 µM, Huh7.5 cells) was 0.93 Fold DMSO; in the data set with Huh7.5 cells [6] (Table 2, 6A1HI analogues, 50 μM, Huh7.5, 2 days) it was 0.93 fold DMSO. Further, the “Cell viability (fold DMSO) Mean” value with Huh7.5 cells [6] stood at 0.80 fold DMSO. For the same compound, the CC50 in the data set with Huh7.5 cells [6] (read-out: CC50 Huh 7.5, uninfected Huh7.5, 2 days, CellTiter-Glo) was determined as 177 µM. For the same compound, in data set [7], the “levels of viral protein NS3 (western blot)” value was “remained unchanged”.

As for `Cc1cccc(N2CCNCC2)n1` [FS-1568, Cc1cccc(n1)N2CCNCC2], the activity at 50 µM in [1] (setting [12]) came to 91%; in [2], 102%. For the same compound, in the data set with Huh7.5 cells [6], the “Cell viability (fold DMSO) Mean” value is given as 1.22 fold DMSO.

Regarding `Cc1cc2c(cc1C)NC(C)CC(=O)N2` (centres unmarked) [Compound 12W-0869, CC1CC(=O)Nc2cc(C)c(C)cc2N1], the results for the activity at 50 µM in data set [1] (setting [12]) and in data set [2] were 85% and 97%, respectively. Also, in the data set with Huh7.5 cells [6], the “Cell viability (fold DMSO) Mean” value came to 1.09 fold DMSO.

In the case of `Cc1ccnn1-c1ccccc1` [PS-4283, Cc1ccnn1c2ccccc2], the figures for the activity at 50 µM in data set [1] (setting [12]) and in data set [2] were 104% and 106%, respectively. In addition, the “Cell viability (fold DMSO) Mean” value in the data set on Huh7.5 cells [6] came to 1.07 fold DMSO.

Take `Nc1cccc(Cl)c1Cl` [PS-4077, Nc1cccc(Cl)c1Cl]: the activity at 50 µM in [1] (setting [12]) was determined as 96%; in data set [2], 120%. Moreover, the “Cell viability (fold DMSO) Mean” value with Huh7.5 cells [6] came to 0.97 fold DMSO.

On to `N[C@@H]1c2ccccc2C[C@@H]1O` [PS-4272, N[C@H]1[C@@H](O)Cc2ccccc12], for which the activity at 50 µM in data set [1] (setting [12]) is 93%; in [2], 102%. Further, the “Cell viability (fold DMSO) Mean” value with Huh7.5 cells [6] worked out at 1.08 fold DMSO.

Turning to `NC(=O)NCc1cccc(Cl)c1` [Compound 9M-050, NC(=O)NCc1cccc(Cl)c1], the activity at 50 µM in [1] (setting [12]) came to 100%; in [2] it was 110%. In addition, the “Cell viability (fold DMSO) Mean” value with Huh7.5 cells [6] is on record as 1.27 fold DMSO.

Take `O=C1CCNc2c(F)cccc21` [PS-6636, Fc1cccc2C(=O)CCNc12]: the results for the activity at 50 µM in [1] (setting [12]) and in data set [2] were 87% and 86%, respectively. In the data set with Huh7.5 cells [6], the “Cell viability (fold DMSO) Mean” value was found to be 1.14 fold DMSO.

For `OCc1cccc(CO)n1` [PS-5751, OCc1cccc(CO)n1], the figures for the activity at 50 µM in data set [1] (setting [12]) and in data set [2] were 100% and 113%, respectively. The “Cell viability (fold DMSO) Mean” value in the data set with Huh7.5 cells [6] came to 0.90 fold DMSO.

Take `CC1(C)CN2C(=O)c3ccccc3C2S1` (stereo not drawn) [Compound 12R-0242, CC1(C)CN2C(S1)c3ccccc3C2=O]: the activity at 50 µM in data set [1] (setting [12]) amounted to 62%; in data set [2], 74%. For the same compound, in the data set on Huh7.5 cells [6], the “Cell viability (fold DMSO) Mean” value amounted to 0.81 fold DMSO.

In the case of `Cc1onc(-c2ccccc2)c1C#N` [Compound 10B-058, Cc1onc(c2ccccc2)c1C#N], the activity at 50 µM was 102% in data set [1] (setting [12]) and 106% in data set [2]. Moreover, the “Cell viability (fold DMSO) Mean” value in the data set on Huh7.5 cells [6] turned out to be 0.98 fold DMSO.

As to `CC(N)c1cccnc1` (centres unmarked) [PS-3055, CC(N)c1cccnc1], the results for the activity at 50 µM in [1] (setting [12]) and in [2] were 100% and 111%, respectively. Besides, the “Cell viability (fold DMSO) Mean” value with Huh7.5 cells [6] was determined as 0.98 fold DMSO.

The values are drawn from paper PMC9933715 (Antimicrobial Agents and Chemotherapy, 2023).
